The values below come from ChEMBL document CHEMBL4420075, “Seriniquinones, melanoma-specific anticancer agents” (2016).

Usually IC50 stands for the midpoint of a concentration-inhibition curve. The low end stands for greater potency, the high end for weaker potency.

The test system of this test is HCT-116. Put plainly: Cytotoxicity in human HCT116 cells by MTT assay. The class given is functional, cell-based. Background: Formazan colour is commonly taken as a measure of viable cells.

The compound `O=C(Nc1ccc2c(=O)c3sc4c(=O)c5ccc(NC(=O)C(F)(F)F)cc5c(=O)c4c3c(=O)c2c1)C(F)(F)F` yielded an IC50 of 480 nM.
Under `CC(=O)Oc1ccc2c(=O)c3c(sc4c(=O)c5cc(OC(C)=O)ccc5c(=O)c43)c(=O)c2c1` stands 5800 nM.
`O=c1c2ccccc2c(=O)c2c1sc1c(=O)c3ccc(Cl)cc3c(=O)c12` displayed an IC50 of 280 nM.
In the case of `CC(=O)Oc1ccc2c(=O)c3c(sc4c(=O)c5ccc(O)cc5c(=O)c43)c(=O)c2c1`, the IC50 came out at 1800 nM.
With `O=c1c2ccccc2c(=O)c2c1sc1c(=O)c3ccc(O)cc3c(=O)c12`, the IC50 is 1200 nM.
Compound `CC(=O)Oc1ccc2c(=O)c3c(sc4c(=O)c5cc(O)ccc5c(=O)c43)c(=O)c2c1` displayed an IC50 of 1600 nM. This IC50 and that of the compound before are within 1.5-fold of each other.
The same measure for `CC(=O)Oc1ccc2c(=O)c3sc4c(=O)c5cc(O)ccc5c(=O)c4c3c(=O)c2c1`: 3500 nM.
